What all share (assay type): cell-based
The target of assay [1] is T1, LTRPC7 (Mus musculus, UniProt Q923J1).
T1 construct: expressed in transfected cells
Nature of the assay: Permeation of divalent metal ions in isotonic solutions, whole-cell patch-clamp. The note with it: for effect on outward current / effect on inward current: isotonic solution (120 mM) of test cation for 60 s, HEK-293 over-expressing LTRPC7; for effect on outward current: +80 mV; for effect on inward current: -80 mV; for permeation sequence based on peak inward currents: isotonic solutions. How it is done:
(§1) For patch-clamp experiments, cells grown on glass coverslips were transferred to the recording chamber and kept in a standard modified Ringer's solution of the following composition (in mM): NaCl 145, KCl 2.8, CsCl 10, CaCl2 1, MgCl2 2, glucose 10, Hepes.NaOH 10, pH 7.2. In some experiments, nominally Ca^2+ and/or Mg^2+-free extracellular solutions or isotonic Ca^2+ solutions (120 mM CaCl2) were applied by pressure ejection from wide-tipped pipettes. Intracellular pipette-filling solutions contained (in mM): Cs-glutamate 145, NaCl 8, MgCl2 1, Cs-BAPTA 10, pH 7.2 adjusted with CsOH. In some experiments, Cs-glutamate was replaced equimolarly by K-glutamate or N-methyl-D-glucamine-chloride. Patch-clamp experiments were performed in the tight-seal whole-cell configuration at 21-25° C. High-resolution current recordings were acquired by a computer-based patch-clamp amplifier system (EPC-9, HEKA, Lambrecht, Germany). Sylgard-coated patch pipettes had resistances between 2-4 M after filling with the standard intracellular solution. Immediately following establishment of the whole-cell configuration, voltage ramps of 50 ms duration spanning the voltage range of −100 to +100 mV were delivered from a holding potential of 0 mV at a rate of 0.5 Hz over a period of 200 to 400 seconds. All voltages were corrected for a liquid junction potential of 10 mV between external and internal solutions when internal solutions contained glutamate. Currents were filtered at 2.3 kHz and digitized at 100 μs intervals. Capacitive currents and series resistance were determined and corrected before each voltage ramp using the automatic capacitance compensation of the EPC-9. The low-resolution temporal development of currents at a given potential was extracted from individual ramp current records by measuring the current amplitudes at voltages of −80 mV or +80 mV.
The use of isotonic solutions to probe divalent cation entry through LTRPC7 avoids complications in permeation properties arising from ion-ion interactions, and therefore allows unequivocal interpretation of inward currents—maintained or increased inward currents can only be consistent with permeation of the available extracellular cation. Isotonic solutions of 120 mM of each divalent ion yielded appropriate osmolarities within 10 mOsm from the standard bath and pipette solutions. In this series of experiments, the cells were bathed in the standard external solution containing 1 mM Ca^2+ and 2 mM Mg^2+. At 200 s, when MagNuM had reached its full amplitude, isotonic solutions of each transition metal were applied for 60 s via a puffer pipette.
On the technique in general: In patch-clamp work, channel activity is measured electrically.

For assay [2], the target named is T1, LTRPC7. Nature of the assay: Equimolar substitution of 10 mM Ca^2+ by other divalent metal ions, whole-cell patch-clamp. The note with it: 10 mM test cation replacing 10 mM Ca^2+, HEK-293 over-expressing LTRPC7; for effect on outward current / effect on inward current: 60 s; for effect on outward current: +80 mV; for effect on inward current / increase in inward current compared to Ca^2+: -80 mV; for increase in inward current compared to Ca^2+: no Mg^2+. On the procedure:
as §1
LTRPC7 represents an ion channel that is selective for divalent cations at negative membrane potentials and its activity is regulated by intracellular levels of Mg.nucleotides (Nadler et al., 2001). Although the channel readily permeates monovalent ions upon removal of all divalent ions, inward currents carried by LTRPC7 under physiological conditions are largely carried by the dominant extracellular ion species Ca^2+ and Mg^2+. Ion currents carried by LTRPC7 have therefore been designated MagNuM (for Magnesium.Nucleotide-regulated Metal ion currents). In order to assess the permeation properties of LTRPC7 for other divalent ions, we measured ionic currents in substitution experiments, where 10 mM Ca^2+ was replaced with 10 mM of other divalent cations (FIG. 7). In these experiments, HEK-293 cells expressing LTRPC7 were kept in a bath solution containing 10 mM Ca^2+, without Mg^2+, and development of MagNuM was monitored by whole-cell patch-clamp as described previously (Nadler et al., 2001). When the current had reached maximal amplitude, cells were transiently exposed to an extracellular solution containing 10 mM of the test cation applied via a puffer pipette for a period of 60 s.

In assay [3] the target is T1, LTRPC7. Kind of assay: Simultaneous patch-clamp of MagNuM and fura-2 measurement of [Ca^2+]i, block by Mg.ATP. The note with it: 3 mM Mg.ATP in internal solution. The source says: Based on the above permeation data, we conclude that LTRPC7 must be viewed as a potential entry pathway for a wide variety of trace and toxic metal ions. […] We therefore performed two sets of experiments to address this issue. In the first, we assayed Ca^2+ permeation of LTRPC7 under conditions in which intracellular Ca^2+ is left unbuffered and LTRPC7 is activated or suppressed by manipulation of patch pipette [ATP]i. To this end, HEK-293 cells expressing LTRPC7 were kept in a bath solution with 2 mM each of Ca^2+ and Mg^2+ and were perfused with a Cs-glutamate-based internal solution containing 200 μM fura-2. Simultaneous development of MagNuM was monitored under whole-cell patch-clamp and delivering, from a holding potential of 0 mV, repetitive voltage ramps that spanned −100 to +100 mV over 50 ms at a rate of 0.5 Hz. When Mg.ATP was absent in the pipette, MagNuM rapidly activated, as witnessed by the increase in both inward and outward currents (FIG. 11A) as well as its characteristic current-voltage relationship (FIG. 11B). […] The progressive decrease in amplitude of hyperpolarization-driven changes in [Ca^2+]i observed under these conditions is likely due to increased Ca^2+ buffering as fura-2 equilibrates with the cytosol at its final concentration of 200 μM. […]

The target of assay [4] is T1, LTRPC7. Nature of the assay: Permeation and block by trivalent metal ions, whole-cell patch-clamp. The note with it: for suppression of inward or outward currents carried by LTRPC7: 10 μM (data not shown); for effect on outward currents / effect on inward currents: external solution with 10 mM Ca^2+ without Mg^2+; for effect on outward currents: +80 mV; for effect on inward currents: -80 mV. On the procedure:
as §1
We next tested a series of toxic trivalent metal ions (FIG. 10), which we suspected to not permeate through LTRPC7.

The values below come from patent publication US8580525B2, “Methods of screening for LTRPC7 modulators” (The Queen's Medical Center, priority 2000, dated 2013).

Entries after “also recorded” stand apart in the source; their conditions may differ.

T1 sequence (Q923J1 2-1863 limits assumed): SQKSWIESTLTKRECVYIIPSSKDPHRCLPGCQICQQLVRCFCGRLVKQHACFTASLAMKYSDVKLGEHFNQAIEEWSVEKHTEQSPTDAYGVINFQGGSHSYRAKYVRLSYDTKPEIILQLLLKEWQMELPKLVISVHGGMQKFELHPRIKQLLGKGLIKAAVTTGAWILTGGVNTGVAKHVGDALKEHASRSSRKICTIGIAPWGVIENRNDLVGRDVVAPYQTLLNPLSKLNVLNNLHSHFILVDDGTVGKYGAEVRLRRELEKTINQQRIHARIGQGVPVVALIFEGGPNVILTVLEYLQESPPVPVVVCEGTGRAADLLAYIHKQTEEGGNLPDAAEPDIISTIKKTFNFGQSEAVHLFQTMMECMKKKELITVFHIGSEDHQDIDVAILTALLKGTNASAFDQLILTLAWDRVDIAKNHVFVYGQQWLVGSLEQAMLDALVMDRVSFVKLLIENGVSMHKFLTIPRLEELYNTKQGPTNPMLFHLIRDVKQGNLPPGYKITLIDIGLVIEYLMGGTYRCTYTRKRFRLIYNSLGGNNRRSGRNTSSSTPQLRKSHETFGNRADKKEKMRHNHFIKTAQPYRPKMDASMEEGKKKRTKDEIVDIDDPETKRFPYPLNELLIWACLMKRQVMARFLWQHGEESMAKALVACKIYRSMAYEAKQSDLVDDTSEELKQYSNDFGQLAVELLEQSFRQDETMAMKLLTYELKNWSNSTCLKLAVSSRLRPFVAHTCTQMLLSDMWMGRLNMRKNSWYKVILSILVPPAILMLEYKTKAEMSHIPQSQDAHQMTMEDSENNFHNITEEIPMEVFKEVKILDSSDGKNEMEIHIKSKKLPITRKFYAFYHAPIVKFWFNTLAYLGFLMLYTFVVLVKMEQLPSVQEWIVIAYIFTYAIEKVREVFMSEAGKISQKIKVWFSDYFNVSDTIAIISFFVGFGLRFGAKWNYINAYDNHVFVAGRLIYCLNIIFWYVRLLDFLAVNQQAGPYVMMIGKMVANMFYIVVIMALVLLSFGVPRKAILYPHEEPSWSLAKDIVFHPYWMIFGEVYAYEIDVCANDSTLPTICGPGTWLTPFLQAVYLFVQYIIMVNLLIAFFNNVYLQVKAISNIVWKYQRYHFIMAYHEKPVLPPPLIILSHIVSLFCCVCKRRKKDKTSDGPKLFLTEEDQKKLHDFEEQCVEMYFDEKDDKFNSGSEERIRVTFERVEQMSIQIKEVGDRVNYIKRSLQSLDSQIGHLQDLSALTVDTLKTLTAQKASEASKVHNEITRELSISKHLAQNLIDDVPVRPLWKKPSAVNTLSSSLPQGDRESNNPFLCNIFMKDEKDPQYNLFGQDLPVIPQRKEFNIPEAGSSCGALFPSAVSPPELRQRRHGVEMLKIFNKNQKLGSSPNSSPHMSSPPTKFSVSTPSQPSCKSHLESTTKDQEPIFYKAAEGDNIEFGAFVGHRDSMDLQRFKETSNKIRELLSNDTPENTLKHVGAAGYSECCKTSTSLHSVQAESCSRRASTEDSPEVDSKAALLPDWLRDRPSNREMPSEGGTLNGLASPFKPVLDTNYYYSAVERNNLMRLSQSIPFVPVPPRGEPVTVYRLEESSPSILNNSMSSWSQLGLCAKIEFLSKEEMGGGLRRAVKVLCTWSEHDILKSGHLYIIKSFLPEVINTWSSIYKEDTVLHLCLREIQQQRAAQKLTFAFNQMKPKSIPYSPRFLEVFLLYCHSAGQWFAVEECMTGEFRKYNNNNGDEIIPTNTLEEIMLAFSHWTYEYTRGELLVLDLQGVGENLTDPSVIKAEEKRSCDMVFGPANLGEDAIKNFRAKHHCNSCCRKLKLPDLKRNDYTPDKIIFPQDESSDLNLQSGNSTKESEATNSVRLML

As to `[Mg+2]` [Mg^2+], on LTRPC7 [1], the “effect on outward current” value is recorded as “block of the outward current”. Moreover, at LTRPC7 [2], the “effect on outward current” value is reported as “strongest block of outward currents; also recorded: block of the outward current”, the “effect on inward current” value is given as “slight to moderate increase of the inward current” and the “increase in inward current compared to Ca^2+” value (“increase in inward current” below) is recorded as “less than double”.

In the case of `[Ca+2]` [Ca^2+], the “effect on outward current” value is on record as “block of the outward current” at LTRPC7 [1] and “strongly inhibited outward currents” at LTRPC7 [1] (listed as CaCl2). Further, the figures for the “effect on inward current” value on LTRPC7 [1] and on LTRPC7 [1] (listed as CaCl2) were “increase of the inward” and “enhanced inward currents”, respectively.

For `Nc1ncnc2c1ncn2[C@@H]1O[C@H](COP(=O)(O)OP(=O)([O-])OP(=O)([O-])O)[C@@H](O)[C@H]1O.[Mg+2]` [Mg.ATP], the “[Ca^2+]i (fura-2)” value on LTRPC7 [3] (HEK-293 over-expressing LTRPC7) was “remained similarly steady; also recorded: remains at steady basal levels”. In addition, the “LTRPC7 activity (MagNuM currents)” value at LTRPC7 [3] (bath 2 mM Ca^2+ and 2 mM Mg^2+) is “little change in LTRPC7 activity”.

`[Gd+3]` [Gd^3+]: the “suppression of inward or outward currents carried by LTRPC7” value at LTRPC7 [4] was “ineffective”. The “relative potency as blocker of MagNuM” value at LTRPC7 [4] (10 mM, Gd^3+ versus La^3+) is “more potent inhibitor; also recorded: more potent blocker of MagNuM”. In addition, at LTRPC7 [4] (10 mM), the “effect on outward currents” value is “completely suppressed” and the “effect on inward currents” value is “inhibited inward currents with no sign of significant permeation”.

As to `[Ba+2]` [Ba^2+], at LTRPC7 [1], the “effect on outward current” value is given as “relatively minor inhibitions of the outward current”; the “effect on inward current” value is on record as “moderate increases of the inward”; the “permeation sequence based on peak inward currents” value (shortened to “permeation sequence based”) was “more effectively transported than Ca^2+ and Mg^2+”. Moreover, at LTRPC7 [2], the “effect on outward current” value is “increase of the outward current” and the “effect on inward current” value is given as “slight to moderate increase of the inward current”.

With `[Ni+2]` [Ni^2+], at LTRPC7 [1], the “effect on outward current” value was “strong block of the outward current”, the “effect on inward current” value is reported as “large increase of the inward” and the “permeation sequence based” value is reported as “most permeant metal”. Also, on LTRPC7 [2], the “effect on outward current” value is given as “block of outward currents; also recorded: block of the outward current”, the “effect on inward current” value is on record as “large increase of the inward current” and the “increase in inward current” value is “greater than three-fold”.

On to `[Sr+2]` [Sr^2+], for which, on LTRPC7 [1], the “effect on outward current” value is “relatively minor inhibitions of the outward current”; the “effect on inward current” value was “moderate increases of the inward”; the “permeation sequence based” value is “more effectively transported than Ca^2+ and Mg^2+”. Further, at LTRPC7 [2], the “effect on outward current” value is reported as “increases of the outward current” and the “effect on inward current” value is recorded as “slight to moderate increases of the inward current”. For the same compound, on LTRPC7 [2] (listed as Sr2+), the “effect on outward current” value is given as “increase of the outward current” and the “effect on inward current” value is on record as “slight to moderate increase of the inward current”.

Regarding `[Zn+2]` [Zn^2+], on LTRPC7 [2], the “effect on outward current” value is “block of outward currents; also recorded: block of the outward current”, the “effect on inward current” value is listed as “large increase of the inward current” and the “increase in inward current” value is given as “greater than three-fold”.

For the compound `[Co+2]` [Co^2+], on LTRPC7 [1], the “effect on outward current” value is on record as “strong block of the outward current” and the “effect on inward current” value is given as “gradual increase of the inward current”. On LTRPC7 [2], the “effect on outward current” value was “block of outward currents; also recorded: block of the outward current”, the “effect on inward current” value is recorded as “slight to moderate increase of the inward current” and the “increase in inward current” value was “less than double”.

On to `[Cd+2]` [Cd^2+], for which the “effect on outward current” value was “increases of the outward current” on LTRPC7 [2] and “increase of the outward current” at LTRPC7 [2] (listed as Cd 2+). Also, the “effect on inward current” value was “slight to moderate increases of the inward current” at LTRPC7 [2] and “slight to moderate increase of the inward current” at LTRPC7 [2] (listed as Cd 2+).

In the case of `[La+3]` [La^3+], at LTRPC7 [4], the “suppression of inward or outward currents carried by LTRPC7” value was “ineffective”. For the same compound, on LTRPC7 [4] (10 mM), the “effect on outward currents” value is listed as “far less effective in suppressing outward currents” and the “effect on inward currents” value was “inhibited inward currents with no sign of significant permeation”.
